This is an account of results in patent publication US8404718B2, “Combinations of pyrazole kinase inhibitors” (Astex Therapeutics Limited, priority 2005, dated 2013).

In the first experiment the test system is human colon carcinoma cell line HCT 116. Description: Anti-proliferative activity, Alamar Blue assay. Type of experiment: cell-based. The conditions noted are these: 72 hours compound incubation, read-out: IC50, inhibition of cell growth, HCT 116. As for the experimental part: The anti-proliferative activities of the combinations of the invention, as well as the individual components of the combinations, are determined by measuring the ability of the compounds to inhibition of cell growth in a number of cell lines. Inhibition of cell growth is measured using the Alamar Blue assay (Nociari, M. M, Shalev, A., Benias, P., Russo, C. Journal of Immunological Methods 1998, 213, 157-167). The method is based on the ability of viable cells to reduce resazurin to its fluorescent product resorufin. For each proliferation assay cells are plated onto 96 well plates and allowed to recover for 16 hours prior to the addition of inhibitor compounds for a further 72 hours. At the end of the incubation period 10% (v/v) Alamar Blue is added and incubated for a further 6 hours prior to determination of fluorescent product at […]. In the case of the non-proliferating cell assay cells are maintained at confluence for 96 hour prior to the addition of inhibitor compounds for a further 72 hours. The number of viable cells is determined by Alamar Blue assay as before. All cell lines are obtained from ECACC (European Collection of cell Cultures).
The IC50 is the concentration that inhibits the measured activity by half. `O=C(Nc1ccc(F)cc1)c1n[nH]cc1NC(=O)C(F)(F)F` [Example 3, 4-(2,2,2-Trifluoro-acetylamino)-1H-pyrazole-3-carboxylic acid (4-fluoro-phenyl)-amide]: the IC50 is less than 100 µM. Same read-out and setting: the figure for `O=C(CCc1ccc(Cl)cc1)Nc1c[nH]nc1C(=O)Nc1ccc(F)cc1` [Example 10, 4-[3-(4-Chloro-phenyl)-propionylamino]-1H-pyrazole-3-carboxylic acid (4-fluoro-phenyl)-amide] is less than 20 µM; for `COc1ccccc1C(=O)Nc1c[nH]nc1C(=O)Nc1ccc(F)cc1` [Example 25, 4-(2-Methoxy-benzoylamino)-1H-pyrazole-3-carboxylic acid (4-fluoro-phenyl)-amide] it is less than 20 µM; for `O=C(Nc1ccc(F)cc1)c1n[nH]cc1NC(=O)C1CCCCC1` [Example 27, 4-(Cyclohexanecarbonyl-amino)-1H-pyrazole-3-carboxylic acid (4-fluoro-phenyl)-amide] it is less than 20 µM.

Consider `O=C(CO)Nc1c[nH]nc1C(=O)Nc1ccc(F)cc1` [Example 29, 4-(2-Hydroxy-acetylamino)-1H-pyrazole-3-carboxylic acid (4-fluoro-phenyl)-amide], for which the IC50 is less than 100 µM. Consider `O=C(Nc1c[nH]nc1C(=O)Nc1ccc(F)cc1)c1ccco1` [Example 38, 4-[(Furan-2-carbonyl)-amino]-1H-pyrazole-3-carboxylic acid (4-fluoro-phenyl)-amide], for which the IC50 was less than 100 µM. As to `O=C(Nc1c[nH]nc1C(=O)Nc1ccc(F)cc1)c1cnc[nH]1` [Example 39, 4-[(3H-Imidazole-4-carbonyl)-amino]-1H-pyrazole-3-carboxylic acid (4-fluoro-phenyl)-amide], the IC50 is less than 100 µM. Regarding `O=C(Nc1c[nH]nc1C(=O)Nc1ccc(F)cc1)c1ccc(CO)cc1` [Example 44, 4-(4-Hydroxymethyl-benzoylamino)-1H-pyrazole-3-carboxylic acid (4-fluoro-phenyl)-amide], the IC50 was less than 20 µM. The same measure, in the same setting: for `Cc1ccccc1C(=O)Nc1c[nH]nc1C(=O)Nc1ccc(F)cc1` [Example 46, 4-(2-Methyl-benzoylamino)-1H-pyrazole-3-carboxylic acid (4-fluoro-phenyl)-amide] the value was less than 20 µM; for `O=C(Nc1c[nH]nc1C(=O)Nc1ccc(F)cc1)c1ccc2ccccc2n1` [Example 49, Quinoline-2-carboxylic acid[3-(4-fluoro-phenylcarbamoyl)-1H-pyrazol-4-yl]-amide], less than 100 µM. `O=C(Nc1c[nH]nc1C(=O)Nc1ccc(F)cc1)c1ccsc1` [Example 50, 4-[(Thiophene-3-carbonyl)-amino]-1H-pyrazole-3-carboxylic acid (4-fluoro-phenyl)-amide]: the IC50 was less than 20 µM.

`COc1cccc(C(=O)Nc2c[nH]nc2C(=O)Nc2ccc(F)cc2)c1F` [Example 51, 4-(2-fluoro-3-methoxy-benzoylamino)-1H-pyrazole-3-carboxylic acid (4-fluoro-phenyl)-amide]: the IC50 is less than 100 µM. With `O=C(Nc1c[nH]nc1C(=O)Nc1ccc(F)cc1)c1ccccc1OCCN1CCCC1` [Example 52, 4-[2-(2-Pyrrolidin-1-yl-ethoxy)-benzoylamino]-1H-pyrazole-3-carboxylic acid 4-fluorophenylamide], the IC50 was less than 20 µM.

In the case of `COc1cccc(OC)c1C(=O)Nc1c[nH]nc1C(=O)Nc1ccc(F)cc1` [Example 60], the IC50 was less than 20 µM.

Turning to `O=C(NC1CCOCC1)c1n[nH]cc1NC(=O)c1c(F)cccc1F` [Example 66], the IC50 is less than 20 µM. Still for that read-out and setting: the figure for `O=C(NCC1CCOCC1)c1n[nH]cc1NC(=O)c1c(F)cccc1F` [Example 67] is less than 20 µM; for `O=C(NCC1CCCCC1)c1n[nH]cc1NC(=O)c1c(F)cccc1F` [Example 69] it is less than 20 µM. Take `O=C(Nc1cccc(CO)c1)c1n[nH]cc1NC(=O)c1c(F)cccc1F` [Example 73]: the IC50 was less than 20 µM. As for `O=C(Nc1cccc(CN2CCOCC2)c1)c1n[nH]cc1NC(=O)c1c(F)cccc1F` [Example 74], the IC50 is less than 20 µM. `O=C(NC1CCCC1)c1n[nH]cc1NC(=O)c1c(F)cccc1F` [Example 75]: the IC50 is less than 20 µM. On to `O=C(NCC1CC1)c1n[nH]cc1NC(=O)c1c(F)cccc1F` [Example 79], for which the IC50 is less than 20 µM. With `Cc1[nH]nc(C(=O)Nc2ccc(F)cc2)c1NC(=O)c1c(F)cccc1F` [Example 80], the IC50 was less than 20 µM. For `CCOC(=O)C1CCC(NC(=O)c2n[nH]cc2NC(=O)c2c(F)cccc2F)CC1` (centres unmarked) [Example 83A, 4-{[4-(2,6-difluoro-benzoylamino)-1H-pyrazole-3-carbonyl]-amino}-cyclohexanecarboxylic acid ethyl ester], the IC50 was less than 20 µM. As to `O=C(NC1CCN(Cc2ccccc2)C1)c1n[nH]cc1NC(=O)c1c(F)cccc1F` (centres unmarked) [Example 85], the IC50 was less than 100 µM.

On to `O=C(NCc1ccccn1)c1n[nH]cc1NC(=O)c1c(F)cccc1F` [Example 89], for which the IC50 is less than 100 µM. In the case of `O=C(NCc1ccccc1)c1n[nH]cc1NC(=O)c1c(F)cccc1F` [Example 90], the IC50 was less than 20 µM. Consider `O=C(NCc1ccccc1Cl)c1n[nH]cc1NC(=O)c1c(F)cccc1F` [Example 91], for which the IC50 is less than 20 µM.

`O=C(NCc1ccccc1F)c1n[nH]cc1NC(=O)c1c(F)cccc1F` [Example 92]: the IC50 is less than 20 µM. Still for that read-out and setting: the figure for `O=C(NC1CCC(O)CC1)c1n[nH]cc1NC(=O)c1c(F)cccc1F` (centres unmarked) [Example 95] is less than 20 µM; for `CC(C)(C)OC(=O)N1CCCC(CNC(=O)c2n[nH]cc2NC(=O)c2c(F)cccc2F)C1` (centres unmarked) [Example 97] it is less than 20 µM; for `O=C(NCC1CCCNC1)c1n[nH]cc1NC(=O)c1c(F)cccc1F` (centres unmarked) [Example 98] it is less than 20 µM. Regarding `O=C(NC1CCNCC1)c1n[nH]cc1NC(=O)c1c(Cl)cccc1Cl` [Example 150], the IC50 is less than 20 µM. On the same count and under the same terms, the figure for `O=C(Nc1cc(F)ccc1OCCN1CCCC1)c1n[nH]cc1NC(=O)c1c(F)cccc1F` [Example 166, 4-(2,6-Difluoro-benzoylamino)-1H-pyrazole-3-carboxylic acid[5-fluoro-2-(2-pyrrolidin-1-yl-ethoxy)-phenyl]-amide] is less than 20 µM; for `Cn1nc(C(C)(C)C)cc1C(=O)Nc1c[nH]nc1C(=O)NCC1CC1` [Example 183] it is less than 100 µM; for `O=C(NC1CCNC1)c1n[nH]cc1NC(=O)c1c(F)cccc1F` (centres unmarked) [Example 185] it is less than 20 µM.

For `O=C(Nc1c[nH]nc1C(=O)NC1CCNCC1)c1cccc2c1OCCO2` [Example 192], the IC50 is less than 20 µM. Same read-out and setting: for `O=C(NC1CCNCC1)c1n[nH]cc1NC(=O)c1cnn2ccccc12` [Example 193] the value was less than 20 µM; for `COc1nc(Cl)cc(C)c1C(=O)Nc1c[nH]nc1C(=O)NC1CCNCC1` [Example 195], less than 20 µM. As to `CN1CCC(NC(=O)c2n[nH]cc2NC(=O)c2c(F)cc(F)cc2F)CC1` [Example 205], the IC50 is less than 20 µM.

`CN1CCN(NC(=O)c2n[nH]cc2NC(=O)c2c(Cl)cccc2Cl)CC1` [Example 207]: the IC50 was less than 20 µM. `COC1CCC(NC(=O)c2n[nH]cc2NC(=O)c2c(Cl)cccc2Cl)CC1` (centres unmarked) [Example 210]: the IC50 is less than 20 µM. Same read-out and setting: for `CN1CCN(c2cc(F)cc(C(=O)Nc3c[nH]nc3C(=O)NC3CCC(C(C)(C)C)CC3)c2)CC1` (centres unmarked) [Example 214] the value was less than 20 µM; for `O=C(N[C@@H]1CN2CCC1CC2)c1n[nH]cc1NC(=O)c1c(F)cccc1F` [Example 216], less than 100 µM. Consider `O=C(Nc1cccnc1)c1n[nH]cc1NC(=O)c1c(Cl)cccc1Cl` [Example 218], for which the IC50 was less than 20 µM. As for `O=C(NC1CCN(CC2CCOC2)CC1)c1n[nH]cc1NC(=O)c1c(Cl)cccc1Cl` (centres unmarked) [Example 219], the IC50 was less than 20 µM. Same read-out and setting: for `O=C(Nc1ccncc1)c1n[nH]cc1NC(=O)c1c(Cl)cccc1Cl` [Example 220] the value was less than 20 µM.

For the compound `O=C(NC1CCN(C2CCOCC2)CC1)c1n[nH]cc1NC(=O)c1c(F)cccc1F` [Example 221], the IC50 was less than 20 µM. Turning to `COc1cccc(F)c1C(=O)Nc1c[nH]nc1C(=O)Nc1cccnc1` [Example 222], the IC50 is less than 20 µM. In the case of `O=C(Nc1cccnc1)c1n[nH]cc1NC(=O)c1c(F)cccc1F` [Example 223], the IC50 was less than 20 µM.

In a further experiment the target is Activated CDK2/CyclinA (Homo sapiens, UniProt P24941). Description: Activated CDK2/CyclinA kinase inhibitory activity assay (IC50), Example 250A. It counts as biochemical.
Conditions: not given
As for the experimental part: Compounds of the invention were tested for kinase inhibitory activity using the following protocol.
The reaction is allowed to proceed for 2 to 4 hours before being stopped with an excess of ortho-phosphoric acid (5 μl at 2%).
γ^33P-ATP which remains unincorporated into the histone H1 is separated from phosphorylated histone H1 on a Millipore MAPH filter plate. The wells of the MAPH plate are wetted with 0.5% orthophosphoric acid, and then the results of the reaction are filtered with a Millipore vacuum filtration unit through the wells. Following filtration, the residue is washed twice with 200 μl of 0.5% orthophosphoric acid. Once the filters have dried, 20 μl of Microscint 20 scintillant is added, and then counted on a Packard Topcount for 30 seconds.
`O=C(NC[C@H]1CC[C@H](NC(=O)c2n[nH]cc2NC(=O)c2c(F)cccc2F)CC1)OCc1ccccc1` [Example 130] showed an IC50 of less than 20 µM. `O=C(Nc1ccccc1)Nc1c[nH]nc1C(=O)N[C@H]1CC[C@H](O)CC1` [Example 156] gave an IC50 of less than 20 µM. The compound `O=C(N[C@H]1CC[C@@H](N2CCOCC2)CC1)c1n[nH]cc1NC(=O)c1c(F)cccc1F` [Example 168] gave an IC50 of less than 20 µM. `CC(C)(C)CNC(=O)Nc1c[nH]nc1C(=O)N[C@H]1CC[C@H](O)CC1` [Example 169] returned an IC50 of less than 20 µM.
